Laboratory results from PubChem BioAssay (NCI).
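The compound was tested at five concentrations on cells cultured in 96-well plates, with a 48-hour exposure period. Here, GI50 denotes the concentration required for 50% inhibition of growth. TGI is the concentration that stops growth completely.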

Experiments:
Assay in all cases: NCI anticancer screen, dose series, 48 h
[1] = tested on: ACHN renal
[2] = tested on: CAKI-1 renal
[3] = tested on: HCT-116 colon
[4] = tested on: IGROV1 ovarian
[5] = tested on: LOX IMVI melanoma
[6] = tested on: NCI-H460 lung
[7] = tested on: RPMI-8226 leukemia
[8] = tested on: SF-539 CNS
[9] = tested on: SK-MEL-5 melanoma
[10] = tested on: UACC-257 melanoma

Compound	GI50 [1] [µM]	TGI [1] [µM]	GI50 [2] [µM]	TGI [2] [µM]	GI50 [3] [µM]	TGI [3] [µM]	GI50 [4] [µM]	TGI [4] [µM]	GI50 [5] [µM]	TGI [5] [µM]	GI50 [6] [µM]	TGI [6] [µM]	GI50 [7] [µM]	TGI [7] [µM]	GI50 [8] [µM]	TGI [8] [µM]	GI50 [9] [µM]	TGI [9] [µM]	GI50 [10] [µM]	TGI [10] [µM]
Nc1ccc(C#Cc2cncnc2Nc2ccc(OCc3cccc(F)c3)c(Cl)c2)cc1	6.87	> 25	5.87	> 25	10.6	> 25	4.93	> 25	12.8	> 25	15.7	> 25	15.3	> 25	> 15.8	> 25	> 15.8	> 25	> 13.2	> 25
O=C1CC2CCCCC2=C1O (stereo not given)	–	> 100	–	> 100	–	> 100	–	> 100	–	> 100	–	> 100	–	> 100	–	> 100	–	> 100	–	> 100
COC(=O)c1ccccc1NC(=O)C(=O)CC(=O)c1ccccc1NC1=CC(=O)C(=O)c2ccccc21	–	59.5	–	74.1	–	20	–	> 59.6	–	4.76	–	65.4	–	35.1	–	46.2	–	14.2	–	14.8
COc1ccc(C2NCCc3c2[nH]c2ccccc32)cc1CN1CCN(c2ccc(F)cc2)CC1 (stereo not given)	1.87	3.69	1.57	3.31	1.62	3	2.5	6.29	1.64	3.09	1.85	3.49	2.47	5.65	1.88	3.42	1.63	3.01	1.76	3.26
N#C/C(=C/C=C(\Cl)c1ccc(Cl)cc1)C(N)=O	2.37	6.39	1.29	2.99	0.402	1.49	> 20	> 100	0.976	6.91	4.65	> 100	2.14	> 100	3.19	9.27	4.56	15.1	6.17	11.4
CCCCCCCCCCCCCC/C(C(=O)OC)=C(/O)C(=O)OCC	–	> 100	–	> 100	–	> 100	–	> 100	–	39.3	–	> 100	–	> 100	–	> 100	–	> 100	–	> 100
CCCCCCCCOc1ccc(/C=N/Nc2cc(C)nc3ccc(Cl)cc23)cc1	1.74	3.13	1.69	3.11	1.83	3.81	1.84	3.67	1.66	3.17	2.01	3.87	2.01	4.63	1.86	3.29	1.73	3.16	1.75	4.03
COc1ncc(-c2nc3c(n2C(C)C)[C@H](c2ccc(Cl)cc2)N(c2cc(Cl)cn(C)c2=O)C3=O)c(OC)n1	15.2	> 100	26.3	> 100	22	> 100	22.1	> 100	11.2	> 100	22.8	> 100	24.5	87.5	64.5	> 100	11.7	24.1	17.2	94.4
C=C1C(=O)O[C@H]2[C@H]1CC/C(COC(=O)C(=O)c1c[nH]c3ccc(OC)cc13)=C\CC[C@@]1(C)O[C@@H]21	4.21	9.2	9.23	23.3	4.48	8.73	3.22	7.64	1.49	2.35	10.2	24.8	2.21	10.5	6.15	10.4	5.48	8.72	6.53	12.1
COc1cc2c3c(n(CCCN)c(=O)c2cc1OC)-c1ccc(F)cc1C3=O	0.861	6.14	1.69	15.6	1.19	2.46	1.82	7.68	0.955	4.68	0.369	1.78	0.605	2.71	1.28	3.17	1.29	6.06	13.9	31
C=C(CN1CCN(c2cccc(C(F)(F)F)c2)CC1)c1ccc(C(=O)Nc2ccccc2N)cc1	0.92	11.1	0.625	> 17.6	1.14	11.7	14.2	> 50	0.56	6.25	1.56	> 24.8	0.322	2.49	0.543	2.82	0.568	6.72	0.762	17.8
O=c1cccc(C#Cc2ccccc2)o1	7.7	21.5	5.05	15.3	2.8	26.2	9.58	> 87.3	7.89	30.1	3.91	> 100	0.698	12.1	3.72	27.6	2.51	9.59	7.74	22.4
